Source: PMC12171319, “3‐Oxabicyclo[3.1.1]heptane as an Isostere of meta‐Benzene” (Angewandte Chemie (International Ed. in English), 2025)
Values after ≈ are worked out from the molar mass of the structure shown. Where two headings read alike, the source gives them in different places.

How the values were obtained:
[1] = Kinetic solubility in phosphate-buffered saline, pH 7.4; format: physicochemical; details: 25 °C, pH 7.4, aqueous buffer, kinetic from dmso stock; for solubility at 2 h: PBS solubility
Protocol: page 239: 7. […] The data […] analysis software. […] page 240: Methods Kinetic solubility assay was performed according to Enamine's aqueous solubility SOP. Briefly, […] theoretical concentration of 400 μM in duplicates in phosphate-buffered saline pH 7.4 […] The experimental compound dilutions in PBS were further allowed to equilibrate at 25 °C on a thermostatic shaker for two hours and then filtered through HTS filter plates using a vacuum manifold. The filtrates of test […] prepared to theoretical concentrations of 0 μM (blank), 10 μM, 25 μM, 50 μM, 100 μM, and 200 […] Ondansetron was used as a reference compound to control proper assay performance. 200 μL of each sample was transferred to a 96-well plate and measured in the 230-550 nm range with a 5 nm step. The concentrations of compounds in PBS filtrate are calculated using a dedicated Microsoft Excel calculation script. Proper absorbance wavelengths for calculations are selected for each compound manually based on absorbance maximums (absolute absorbance unit values for the minimum and maximum concentration points within the 0 - 3 OD range). Each final dataset is visually evaluated by the operator, and goodness of fit (R2) is calculated for each calibration curve. […] close to the upper limit of the range may have higher actual solubility (e.g. 5'-deoxy-5- fluorouridine). The calibration curves are shown in Appendix*. […] Compound ID PBS solubility, pH 7.4, μM SE […] Ondansetron 128 126 127** 1.1 EN300-7362818 6 6 6 0.2 (Sonidegib) BCHep-Sonidegib (50) 5 3 4 0.9 Table S3. 2nd batch PBS solubility, pH 7.4, μM Compound ID SE […] Ondansetron 124 124 124** 0.1 EN300-45381956 (51) 34 34 34 0.2 *Goodness of fit (R2) in all titration curves as well as the variations between repeat measurements indicates a high quality of the experimental data in the current batch of test articles. **Ondansetron solubility data are consistent with those previously obtained. […]

[2] = Metabolic stability in human liver microsomes; format: in vitro ADME; details: both sexes, human
Protocol: 9. Metabolic Stability in Human Liver Microsomes
The objective of this study was to determine the metabolic stability of 3 test articles (EN300- […]
in human liver microsomes at five-time points over 40 minutes using HPLC-MS. Metabolic stability is defined as the percentage of parent compound lost over time in the presence of a metabolically active test system.
Potassium phosphate monobasic (Bio-Basic, Canada; Lot #N9016010)
Potassium phosphate dibasic (Bio-Basic, Canada; Lot #MA7100050) […]
Glucose-6-phosphate dehydrogenase from baker's yeast, type XV (Sigma-Aldrich, USA; Cat […]
D-Glucose-6-phosphate sodium salt (Sigma-Aldrich, USA; Cat #G7879-1G)
NADPH tetrasodium salt (BLD Pharmatech Ltd., Cat #BD116582)
Verapamil hydrochloride (Sigma Aldrich, USA; Cat #V4629)
Niclosamide (Sigma-Aldrich, USA; Cat #N3510)
DMSO stock solutions of the tested compounds 20 mM
Gradient HPLC system (Shimadzu)
Triple quadrupole mass-detector API 3000 with TurboIonSpray Ion Source (AB Sciex, Canada) […]
Multichannel pipettors 1-30 µL, 2-125 µL, 30-850 µL (Thermo Scientific) […]
All measurements were performed using the Shimadzu HPLC system including vacuum degasser, gradient pumps, reverse phase HPLC column, column oven, and autosampler. Mass spectrometric analysis was performed using an API 3000 mass spectrometer from Applied Biosystems/MDS Sciex (AB Sciex) with Turbo V ion source and TurboIonspray interface. The […]
and system control were performed using Analyst 1.6.3 software from AB Sciex.
Microsomal incubations were carried out in 96-well plates in 5 aliquots of 30 μL each (one for each time point). Liver microsomal incubation medium comprised of phosphate buffer (100 mM, pH 7.4), MgCl2 (3.3 mM), NADPН (3 mM), glucose-6-phosphate (5.3 mM), glucose-6-phosphate dehydrogenase (0.67 units/mL) with 0.42 mg of liver microsomal protein per mL. In the control reactions, the NADPH-cofactor system was substituted with phosphate buffer. Test compounds […]
100 rpm. Five-time points over 40 minutes were analyzed. The reactions were stopped by adding 5 volumes of acetonitrile with internal standard to incubation aliquots, followed by protein sedimentation by centrifuging at 5500 rpm for 5 min. Each reaction was performed in duplicates.
Supernatants were analyzed using the HPLC system coupled with a tandem mass spectrometer.
The elimination constant (kel), half-life (t1/2), and intrinsic clearance (Clint) were determined in a plot of […] versus time, using linear regression analysis:1
1 In order to indicate the quality of the linear regression analysis, the R2 (determination coefficient) values are provided.
In some cases, the last time point is excluded from the calculations to ensure acceptable logarithmic linearity of decay.

[3] = Table S5, 2nd batch
in vitro = details: human; for Papp A→B at 90 min, 10 µM: Caco-2, pH 7.4, Papp (AB); for Papp B→A at 90 min, 10 µM: Caco-2, pH 7.4, Papp (BA)
[4] = system: Hedgehog signaling pathway; details: Mus musculus
[5] = replicate 1, 10 µM, no verapamil
[6] = replicate 2, 10 µM, no verapamil

Cc1c(C(=O)Nc2ccc(N3C[C@@H](C)O[C@@H](C)C3)nc2)cccc1-c1ccc(OC(F)(F)F)cc1 [Sonidegib]
solubility kinetic at 2 h [1]: 6 µM (≈ 2.91 µg/mL)
solubility at 2 h ([1]; pH 7.4, Incubation 1): 6 µM (≈ 2.91 µg/mL)
solubility at 2 h ([1]; pH 7.4, Incubation 2): 6 µM (≈ 2.91 µg/mL)
solubility at 2 h ([1]; pH 7.4, Mean): 6 µM (≈ 2.91 µg/mL)
half-life at 2 μM ([2]; human liver microsomes, pH 7.4, human liver microsomes, read-out: t1/2: experimental half-time of a metabolic decomposition): 104 min
microsomal CLint at 2 μM ([2]; human liver microsomes, pH 7.4, read-out: CLint: experimental metabolic stability in human liver microsomes): 16 µL/min/mg
remaining at 7 min, 2 µM ([2]; liver microsomes, pH 7.4, Table S7, 2nd batch, 7 min, 2 µM): 100%
remaining at […], 2 µM ([2]; liver microsomes, pH 7.4, Table S7, 2nd batch, 15 min, 2 µM): 94%
remaining at 25 min, 2 µM ([2]; liver microsomes, pH 7.4, Table S7, 2nd batch, 25 min, 2 µM): 89%
remaining at 40 min, 2 µM ([2]; liver microsomes, pH 7.4, Table S7, 2nd batch, 2 µM, read-out: % Remaining, Mean of 2): 77%
remaining at 40 min, 2 µM ([2]; liver microsomes, pH 7.4, Table S7, 2nd batch, no NADPH, read-out: % Remaining without cofactor, Mean of 2): 103%
k el at 2 µM ([2]; liver microsomes, pH 7.4, Table S7, 2nd batch): 0.000117 s⁻¹
half-life at 2 μM ([2]; liver microsomes, pH 7.4, Table S7, 2nd batch, read-out: t1/2): 104 min
D ([3]; incubation 1): 5.61E+04
D ([3]; incubation 2): 5.60E+04
D ([3]; incubation 3): 6.79E+04
logD at 1 h (physchem; pH 7.4, LogD, pH 7.4): ≥ 4.5
logD at 1 h (physchem; pH 7.4, LogD, pH 7.4 (overall of 3 incubations)): ≥ 4.5
logD at 1 h (physchem; pH 7.4, logD (7.4): experimental distribution coefficient in n-octanol/phosphate-buffered saline, pH 7.4): ≥ 4
efflux ratio at 90 min, 10 µM (in vitro; Caco-2, pH 7.4): 0.3
Papp A→B at 90 min, 10 µM (in vitro; Mean, 10 µM, no verapamil): 2.8 ×10⁻⁶ cm/s
Papp A→B at 90 min, 10 µM (in vitro; [5]): 2.9 ×10⁻⁶ cm/s
Papp A→B at 90 min, 10 µM (in vitro; [6]): 2.7 ×10⁻⁶ cm/s
Papp B→A at 90 min, 10 µM (in vitro; Mean, 10 µM, no verapamil): 0.9 ×10⁻⁶ cm/s
Papp B→A at 90 min, 10 µM (in vitro; [5]): 1 ×10⁻⁶ cm/s
Papp B→A at 90 min, 10 µM (in vitro; [6]): 0.9 ×10⁻⁶ cm/s
recovery at 90 min, 10 µM (in vitro; Caco-2, pH 7.4, Recovery A-B in presence of Verapamil, Mean, with verapamil): 65%
recovery at 90 min, 10 µM (in vitro; Caco-2, pH 7.4, Recovery A-B in presence of Verapamil, replicate 1, with verapamil): 67%
recovery at 90 min, 10 µM (in vitro; Caco-2, pH 7.4, Recovery A-B in presence of Verapamil, replicate 2, with verapamil): 63%
recovery at 90 min, 10 µM (in vitro; Caco-2, pH 7.4, Recovery A-B, Mean, no verapamil): 36%
recovery at 90 min, 10 µM (in vitro; Caco-2, pH 7.4, Recovery A-B, replicate 1, no verapamil): 35%
recovery at 90 min, 10 µM (in vitro; Caco-2, pH 7.4, Recovery A-B, replicate 2, no verapamil): 37%
recovery at 90 min, 10 µM (in vitro; Caco-2, pH 7.4, Recovery B-A in presence of Verapamil, Mean, with verapamil): 61%
recovery at 90 min, 10 µM (in vitro; Caco-2, pH 7.4, Recovery B-A in presence of Verapamil, replicate 1, with verapamil): 63%
recovery at 90 min, 10 µM (in vitro; Caco-2, pH 7.4, Recovery B-A in presence of Verapamil, replicate 2, with verapamil): 60%
recovery at 90 min, 10 µM (in vitro; Caco-2, pH 7.4, Recovery B-A, Mean, no verapamil): 45%
recovery at 90 min, 10 µM (in vitro; Caco-2, pH 7.4, Recovery B-A, replicate 1, no verapamil): 46%
recovery at 90 min, 10 µM (in vitro; Caco-2, pH 7.4, Recovery B-A, replicate 2, no verapamil): 43%
IC50 ([4]; NIH3T3, read-out: IC50, Hedgehog signaling pathway, mean ± SD from 2 independent experiments, experiment with BCH-Sonidegib (50)): 6.4 ± 0.5 nM
IC50 ([4]; NIH3T3, read-out: IC50, Hedgehog signaling pathway, reference compound in the experiment with EN300-45381956 (51)): 1.46 nM
IC50 ([4]; NIH3T3, read-out: pIC50, Hedgehog signaling pathway, experiment with EN300-45381956 (51) (converted), calculated from IC50): 1.58 nM
